Results from ChEMBL document CHEMBL1126305, “Synthesis and antiviral properties of (+/-)-5'-noraristeromycin and related purine carbocyclic nucleosides. A new lead for anti-human cytomegalovirus agent design” (1992).
Values after ≈ are worked out from the molar mass of the structure shown.

What was measured:
[1] = tested on: E6SM; test: Minimum inhibitory concentration required to reduce virus induced cytopathicity by 50% was determined against vesicular stomatitis virus in E6SM cells; assay type: functional; conditions: Homo sapiens
[2] = tested on: E6SM; test: Minimum inhibitory concentration required to reduce virus induced cytopathicity by 50% was determined against HSV-2 virus in E6SM cells; assay type: functional; conditions: Homo sapiens
[3] = tested on: E6SM; test: Minimum inhibitory concentration required to reduce virus induced cytopathicity by 50% was determined against TK- HSV-1 virus in E6SM cells; assay type: functional; conditions: Homo sapiens
[4] = tested on: E6SM; test: Minimum inhibitory concentration required to reduce virus induced cytopathicity by 50% was determined against HSV-1 virus in E6SM cells; assay type: functional; conditions: Homo sapiens
[5] = tested on: Vero; test: Minimum inhibitory concentration required to reduce virus induced cytopathicity by 50% was determined against semliki forest virus in Vero cells; assay type: functional; conditions: Chlorocebus sabaeus
[6] = tested on: Vero; test: Minimum inhibitory concentration required to reduce virus induced cytopathicity by 50% was determined against reo type 1 virus in Vero cells; assay type: functional; conditions: Chlorocebus sabaeus
[7] = tested on: Vero; test: Minimum inhibitory concentration required to reduce virus induced cytopathicity by 50% was determined against coxsackie B4 virus in Vero cells; assay type: functional; conditions: Chlorocebus sabaeus
[8] = tested on: HEL; test: Minimum inhibitory concentration required to reduce virus induced cytopathicity by 50% was determined against VZV virus in HEL cells; assay type: functional; conditions: Homo sapiens
[9] = tested on: E6SM; test: Minimum inhibitory concentration required to reduce virus induced cytopathicity by 50% was determined against vaccinia virus in E6SM cells; assay type: functional; conditions: Homo sapiens
[10] = tested on: Vero; test: Minimum inhibitory concentration required to reduce virus induced cytopathicity by 50% was determined against sindbis virus in Vero cells; assay type: functional; conditions: Chlorocebus sabaeus
[11] = tested on: HeLa; test: Minimum inhibitory concentration required to reduce virus induced cytopathicity by 50% was determined against vesicular stomatitis virus in HeLa cells; assay type: functional; conditions: Homo sapiens
[12] = tested on: Vero; test: Minimum inhibitory concentration required to reduce virus induced cytopathicity by 50% was determined against measles virus in Vero cells; assay type: functional; conditions: Chlorocebus sabaeus
[13] = tested on: Vero; test: Minimum inhibitory concentration required to reduce virus induced cytopathicity by 50% was determined against junin virus in Vero cells; assay type: functional; conditions: Chlorocebus sabaeus
[14] = tested on: HeLa; test: Minimum inhibitory concentration required to reduce virus induced cytopathicity by 50% was determined against coxsackie B4 virus in HeLa cells; assay type: functional; conditions: Homo sapiens
[15] = tested on: HEL; test: Minimum inhibitory concentration required to reduce virus induced cytopathicity by 50% was determined against TK- VZV virus in HEL cells; assay type: functional; conditions: Homo sapiens
[16] = tested on: HeLa; test: Minimum inhibitory concentration required to reduce virus induced cytopathicity by 50% was determined against respiratory syncytial virus in HeLa cells; assay type: functional; conditions: Homo sapiens
[17] = tested on: Vero; test: (§1) Minimum inhibitory concentration required to reduce virus induced cytopathicity by 50% was determined against parainfluenza 3 virus in Vero cells; assay type: functional, Homo sapiens; conditions: Chlorocebus sabaeus
[18] = tested on: MDCK; test: (§2) Minimum inhibitory concentration required to reduce virus induced cytopathicity by 50% was determined against influenza B virus in MDCK cells; assay type: functional; conditions: Canis lupus familiaris
[19] = tested on: MDCK; test: (§3) Minimum inhibitory concentration required to reduce virus induced cytopathicity by 50% was determined against influenza A virus in MDCK cells; assay type: functional; conditions: Canis lupus familiaris
[20] = species on record: Homo sapiens; test: (§4) Minimum inhibitory concentration required to reduce virus induced cytopathicity by 50% was determined against HCMV virus in HEL cells; assay type: functional
[21] = tested on: HeLa; test: Minimum inhibitory concentration required to reduce virus induced cytopathicity by 50% was determined against polio 1 virus in HeLa cells; assay type: functional; conditions: Homo sapiens
[22] = tested on: Vero; test: Minimum inhibitory concentration required to reduce virus induced cytopathicity by 50% was determined against tacaribe virus in Vero cells; assay type: functional, Homo sapiens; conditions: Chlorocebus sabaeus
[23] = tested on: Vero; test: as §1; assay type: functional; conditions: Chlorocebus sabaeus
[24] = tested on: HEL; test: as §4; assay type: functional; conditions: Homo sapiens
[25] = tested on: Influenza B virus; test: as §2; assay type: functional
[26] = tested on: Influenza A virus; test: as §3; assay type: functional

| SMILES | MIC [1] | MIC [2] | MIC [3] | MIC [4] | MIC [5] | MIC [6] | MIC [7] | MIC [8] | MIC [9] | MIC [10] | MIC [11] | MIC [12] | MIC [13] | MIC [14] | MIC [15] | MIC [16] | MIC [17] | MIC [18] | MIC [21] | MIC [22] | also measured |
| --- | --- | --- | --- | --- | --- | --- | --- | --- | --- | --- | --- | --- | --- | --- | --- | --- | --- | --- | --- | --- | --- |
| O=c1[nH]c(=O)n([C@H]2C[C@H](O)[C@@H](CO)O2)cc1/C=C/Br [BRIVUDINE] | > 400 µg/mL | 10 µg/mL (≈ 30 µM) | 40 µg/mL (≈ 120 µM) | 0.02 µg/mL (≈ 0.06 µM) | > 400 µg/mL | > 400 µg/mL | > 400 µg/mL | 0.001 µg/mL (≈ 0.003 µM) | 7 µg/mL (≈ 21 µM) | > 400 µg/mL | > 400 µg/mL | > 400 µg/mL | > 400 µg/mL | > 400 µg/mL | > 10 µg/mL | > 400 µg/mL | – | – | – | – | – |
| Nc1ncnc2c1ncn2[C@@H]1C[C@H](O)[C@@H](O)[C@H]1O [NORARISTEROMYCIN] | 0.07 µg/mL (≈ 0.279 µM) | 300 µg/mL (≈ 1190 µM) | 20 µg/mL (≈ 79.6 µM) | 200 µg/mL (≈ 796 µM) | > 200 µg/mL | 0.07 µg/mL (≈ 0.279 µM) | > 200 µg/mL | 65 µg/mL (≈ 259 µM) | 0.3 µg/mL (≈ 1.19 µM) | > 200 µg/mL | 0.07 µg/mL (≈ 0.279 µM) | 0.4 µg/mL (≈ 1.59 µM) | 0.5 µg/mL (≈ 1.99 µM) | > 200 µg/mL | 40 µg/mL (≈ 159 µM) | 2 µg/mL (≈ 7.96 µM) | 0.4 µg/mL (≈ 1.59 µM) | > 100 µg/mL | > 200 µg/mL | 1 µg/mL (≈ 3.98 µM) | MIC [19]: > 100 µg/mL; MIC [20]: 0.4 µg/mL (≈ 1.59 µM) |
| NC(=O)c1ncn([C@@H]2O[C@H](CO)[C@@H](O)[C@H]2O)n1 [RIBAVIRIN] | 70 µg/mL (≈ 287 µM) | > 400 µg/mL | > 400 µg/mL | > 400 µg/mL | 40 µg/mL (≈ 164 µM) | 70 µg/mL (≈ 287 µM) | 100 µg/mL (≈ 409 µM) | – | 40 µg/mL (≈ 164 µM) | 40 µg/mL (≈ 164 µM) | 20 µg/mL (≈ 81.9 µM) | – | – | 70 µg/mL (≈ 287 µM) | – | – | – | – | 70 µg/mL (≈ 287 µM) | – | MIC [23]: 20 µg/mL (≈ 81.9 µM) |
| Nc1ncnc2c1ncn2[C@@H]1C=C(CO)[C@@H](O)[C@H]1O [NEOPLANOCIN A] | 0.2 µg/mL (≈ 0.76 µM) | > 40 µg/mL | 4 µg/mL (≈ 15.2 µM) | > 40 µg/mL | > 40 µg/mL | 0.4 µg/mL (≈ 1.52 µM) | > 40 µg/mL | 8 µg/mL (≈ 30.4 µM) | 0.2 µg/mL (≈ 0.76 µM) | > 40 µg/mL | 0.2 µg/mL (≈ 0.76 µM) | 0.2 µg/mL (≈ 0.76 µM) | 0.4 µg/mL (≈ 1.52 µM) | > 40 µg/mL | 5 µg/mL (≈ 19 µM) | 0.2 µg/mL (≈ 0.76 µM) | 0.4 µg/mL (≈ 1.52 µM) | > 20 µg/mL | > 10 µg/mL | 0.4 µg/mL (≈ 1.52 µM) | MIC [19]: > 20 µg/mL; MIC [24]: 0.4 µg/mL (≈ 1.52 µM) |
| NC(CCS)C(=O)Nc1ncnc2c1ncn2C1O[C@H](CO)[C@@H](O)[C@H]1O (some centres undefined) | 0.7 µg/mL (≈ 1.82 µM) | > 400 µg/mL | > 400 µg/mL | > 400 µg/mL | > 400 µg/mL | 2 µg/mL (≈ 5.2 µM) | > 100 µg/mL | – | 2 µg/mL (≈ 5.2 µM) | 20 µg/mL (≈ 52 µM) | 2 µg/mL (≈ 5.2 µM) | – | 2 µg/mL (≈ 5.2 µM) | > 400 µg/mL | – | – | 0.7 µg/mL (≈ 1.82 µM) | – | > 400 µg/mL | 2 µg/mL (≈ 5.2 µM) | – |
| Oc1ncnc2c1ncn2C1C[C@H](O)[C@H](O)[C@@H]1O (some centres undefined) | > 300 µg/mL | 300 µg/mL (≈ 1190 µM) | 200 µg/mL (≈ 793 µM) | 300 µg/mL (≈ 1190 µM) | > 200 µg/mL | > 200 µg/mL | > 200 µg/mL | 200 µg/mL (≈ 793 µM) | > 300 µg/mL | > 200 µg/mL | > 400 µg/mL | > 100 µg/mL | > 100 µg/mL | > 400 µg/mL | 250 µg/mL (≈ 991 µM) | > 100 µg/mL | > 200 µg/mL | – | > 400 µg/mL | > 100 µg/mL | MIC [25]: > 100 µg/mL; MIC [26]: > 100 µg/mL; MIC [20]: 250 µg/mL (≈ 991 µM) |
| Nc1nc(N)c2ncn(C3C[C@H](O)[C@H](O)[C@@H]3O)c2n1 (some centres undefined) | 2 µg/mL (≈ 7.51 µM) | > 300 µg/mL | > 200 µg/mL | 300 µg/mL (≈ 1130 µM) | > 200 µg/mL | 10 µg/mL (≈ 37.6 µM) | > 200 µg/mL | 230 µg/mL (≈ 864 µM) | 15 µg/mL (≈ 56.3 µM) | > 200 µg/mL | 70 µg/mL (≈ 263 µM) | 20 µg/mL (≈ 75.1 µM) | 85 µg/mL (≈ 319 µM) | > 400 µg/mL | 165 µg/mL (≈ 620 µM) | 50 µg/mL (≈ 188 µM) | 20 µg/mL (≈ 75.1 µM) | > 100 µg/mL | > 400 µg/mL | 100 µg/mL (≈ 376 µM) | MIC [19]: > 100 µg/mL; MIC [20]: 250 µg/mL (≈ 939 µM) |
| Nc1nc(O)c2ncn(C3C[C@H](O)[C@H](O)[C@@H]3O)c2n1 (some centres undefined) | > 400 µg/mL | > 400 µg/mL | > 300 µg/mL | 300 µg/mL (≈ 1120 µM) | > 200 µg/mL | > 200 µg/mL | > 200 µg/mL | 225 µg/mL (≈ 842 µM) | > 400 µg/mL | > 200 µg/mL | > 400 µg/mL | > 100 µg/mL | > 100 µg/mL | > 400 µg/mL | 235 µg/mL (≈ 879 µM) | > 100 µg/mL | > 200 µg/mL | > 100 µg/mL | > 200 µg/mL | > 100 µg/mL | MIC [19]: > 100 µg/mL; MIC [20]: 250 µg/mL (≈ 935 µM) |
